The record followed here is ChEMBL document CHEMBL1122521, “Nucleic acid related compounds. 47. Synthesis and biological activities of pyrimidine and purine "acyclic" nucleoside analogues” (J Med Chem, 1984).

Structures are written as SMILES. ≈ marks a conversion by molar mass, not a printed value.

What all share (assay type): functional
The subject of one experiment is Human alphaherpesvirus 1. Briefly: Concentration required to reduce cytopathogenicity of Herpes simplex virus type 1 (strain KOS) by 50% in primary rabbit kidney (PRK) cells. A general note: Damage to the host cells serves as the signal in cytopathic effect assays.
The subject of experiment [1] is L1210. Briefly: Inhibitory concentration required to reduce [3H1',2']dUrd incorporation into cellular DNA by 50% in Murine Leukemia L1210 cells. To be noted: Mus musculus, read-out: ID50 (the source's name).
The subject of experiment [2] is L1210. Briefly: Inhibitory concentration required to reduce cell growth of Murine Leukemia L1210 cells. As to conditions: Mus musculus, read-out: ID50 (the source's name).
For experiment [3], the system named is L1210. Nature of the experiment: Inhibitory concentration required to reduce [3H-methyl]-dThd C incorporation into cellular DNA by 50% in Murine Leukemia L1210 cells. To be noted: Mus musculus, read-out: ID50 (the source's name).
Experiment [4] can be described thus: Inhibitory concentration required to reduce incorporation of 2-deoxythymidine (dThd) into DNA of Primary Rabbit kidney (PRK) cell cultures. To be noted: Oryctolagus cuniculus, read-out: ID50 (the source's name).
The nature of experiment [5]: Inhibitory concentration required to reduce incorporation of 2-deoxyuridine (dUrd) into DNA of Primary Rabbit kidney (PRK) cell cultures. To be noted: Oryctolagus cuniculus, read-out: ID50 (the source's name).
For the next experiment, the system named is Human alphaherpesvirus 2. Briefly: Concentration required to reduce cytopathogenicity of Herpes simplex virus type 2 (strain G) by 50% in primary rabbit kidney (PRK) cells.

On to `O=c1ccn(COCCO)c(=O)[nH]1`, for which the ID50 in the experiment on Human alphaherpesvirus 1 and with Human alphaherpesvirus 2 was greater than 400 µg/mL throughout. Further, the IC50 was greater than 1000 µg/mL with L1210 [1]; greater than 1000 µg/mL in the experiment on L1210 [2]; greater than 1000 µg/mL in the experiment with L1210 [3]; greater than 400 µg/mL in experiment [4]; greater than 400 µg/mL in experiment [5].
`O=c1[nH]c(=O)n(COCCO)cc1Br`: the ID50 in the experiment on Human alphaherpesvirus 1 and in the experiment on Human alphaherpesvirus 2 was greater than 400 µg/mL each time. The IC50 in the experiment with L1210 [1] is greater than 1000 µg/mL; in the experiment with L1210 [2] it was greater than 1000 µg/mL; with L1210 [3], greater than 1000 µg/mL; in experiment [4], greater than 400 µg/mL; in experiment [5] it was greater than 400 µg/mL.
`O=c1cc(O)ccn1COCCO`: the ID50 in the experiment with Human alphaherpesvirus 1 and in the experiment with Human alphaherpesvirus 2 was greater than 400 µg/mL each time. Further, the IC50 is greater than 1000 µg/mL in the experiment with L1210 [1]; greater than 1000 µg/mL in the experiment with L1210 [2]; greater than 1000 µg/mL in the experiment on L1210 [3]; greater than 400 µg/mL in experiment [4]; greater than 400 µg/mL in experiment [5].
Turning to `O=c1[nH]c(=O)n(COCCO)cc1[N+](=O)[O-]`, the ID50 with Human alphaherpesvirus 1 and in the experiment on Human alphaherpesvirus 2 was greater than 400 µg/mL each time. Besides, the IC50 in the experiment with L1210 [1] is greater than 1000 µg/mL; with L1210 [2], 447 µg/mL (≈ 1930 µM); with L1210 [3], greater than 1000 µg/mL; in experiment [4], greater than 400 µg/mL; in experiment [5] it was greater than 400 µg/mL.
For the compound `O=c1[nH]c(=O)n(COCCO)cc1/C=C/Br`, the ID50 with Human alphaherpesvirus 1 and in the experiment with Human alphaherpesvirus 2 was greater than 400 µg/mL throughout. For the same compound, the IC50 in the experiment on L1210 [1] was greater than 1000 µg/mL; with L1210 [2], greater than 1000 µg/mL; in the experiment on L1210 [3], greater than 1000 µg/mL; in experiment [4] it was greater than 200 µg/mL; in experiment [5], greater than 400 µg/mL.
As to `O=c1[nH]c(=O)n(COCCO)cc1Cl`, the ID50 with Human alphaherpesvirus 1 and with Human alphaherpesvirus 2 was greater than 400 µg/mL throughout. In addition, the IC50 was greater than 1000 µg/mL in the experiment with L1210 [1]; greater than 1000 µg/mL in the experiment on L1210 [2]; greater than 1000 µg/mL with L1210 [3]; greater than 400 µg/mL in experiment [4]; greater than 400 µg/mL in experiment [5].
For the compound `CC(=O)OCCOCn1cc(/C=C/Br)c(=O)[nH]c1=O`, the ID50 in the experiment with Human alphaherpesvirus 1 and with Human alphaherpesvirus 2 was greater than 400 µg/mL throughout. Besides, the IC50 in the experiment on L1210 [1] is greater than 1000 µg/mL; in the experiment on L1210 [2] it was greater than 1000 µg/mL; in the experiment with L1210 [3] it was greater than 1000 µg/mL; in experiment [4], greater than 200 µg/mL; in experiment [5], greater than 400 µg/mL.
Regarding `Cc1cn(COCCO)c(=O)[nH]c1=O`, the ID50 with Human alphaherpesvirus 1 and in the experiment with Human alphaherpesvirus 2 was greater than 400 µg/mL throughout. Further, the IC50 was greater than 1000 µg/mL in the experiment with L1210 [1]; greater than 1000 µg/mL in the experiment on L1210 [2]; greater than 1000 µg/mL in the experiment on L1210 [3]; greater than 400 µg/mL in experiment [4]; greater than 400 µg/mL in experiment [5].
`Nc1nc(=O)n(COCCO)cc1[N+](=O)[O-]`: the ID50 in the experiment on Human alphaherpesvirus 1 and with Human alphaherpesvirus 2 was greater than 400 µg/mL in each case. In addition, the IC50 was 374 µg/mL (≈ 1620 µM) in the experiment with L1210 [1]; 71 µg/mL (≈ 308 µM) in the experiment with L1210 [2]; greater than 500 µg/mL with L1210 [3]; greater than 400 µg/mL in experiment [4]; greater than 400 µg/mL in experiment [5].
With `Nc1nc(=O)ccn1COCCO`, the ID50 with Human alphaherpesvirus 1 and with Human alphaherpesvirus 2 was greater than 400 µg/mL each time. Moreover, the IC50 was greater than 500 µg/mL with L1210 [1]; greater than 500 µg/mL in the experiment on L1210 [2]; greater than 500 µg/mL in the experiment on L1210 [3]; greater than 400 µg/mL in experiment [4]; greater than 400 µg/mL in experiment [5].
`O=c1[nH]c(=O)n(COCCO)cc1I`: the ID50 in the experiment on Human alphaherpesvirus 1 and with Human alphaherpesvirus 2 was greater than 400 µg/mL in each case. The IC50 with L1210 [1] was greater than 1000 µg/mL; in the experiment with L1210 [2], greater than 1000 µg/mL; in the experiment on L1210 [3], greater than 1000 µg/mL; in experiment [4] it was greater than 400 µg/mL; in experiment [5] it was greater than 400 µg/mL.
As for `O=c1[nH]c(=O)n(COCCO)cc1F`, the ID50 with Human alphaherpesvirus 1 and in the experiment with Human alphaherpesvirus 2 was greater than 400 µg/mL each time. Also, the IC50 in the experiment with L1210 [1] is greater than 1000 µg/mL; with L1210 [2], greater than 1000 µg/mL; with L1210 [3], greater than 1000 µg/mL; in experiment [4], greater than 400 µg/mL; in experiment [5], greater than 400 µg/mL.
